18 compounds from patent USRE47302E1 (ONYX THERAPEUTICS INC., priority 2013, dated 2019) can be followed below.

For series [1], the target named is T1, proteasome subunit β5 (beta5) (Homo sapiens, UniProt P28074).
T1 construct: Lysate from the human acute lymphoblastic leukemia cell line, MOLT-4; endogenous in cells; host or cells: MOLT-4
Description: Proteasome active-site ELISA (ProCISE), beta5, MOLT-4 lysate. The format is biochemical. To be noted: MOLT4 lysate, human, 1 h continuous treatment, 25° C. How it is done: (§1) Test compounds were serially diluted in DMSO at 100× concentration, then diluted to 10× in aqueous hypotonic lysis buffer. Lysate from the human acute lymphoblastic leukemia cell line, MOLT-4, was treated for 1 hour at 25° C. with compound at a final 1× concentration. […] Following, lysate was denatured in guanidine hydrochloride, and subunits bound to probe were isolated with streptavidin-conjugated sepharose beads. Individual subunits (e.g., β5, LMP7, LMP2, MECL-1) were probed with subunit-specific primary antibodies, followed by HRP-conjugated secondary antibodies. A chemiluminescent substrate was used to generate signal associated with HRP binding, which was detected on a plate reader. Luminescent signal was normalized to protein content, then, percent activity calculated relative to DMSO-treated controls to generate IC50 curves.
(In general: ELISA stands for enzyme-linked immunosorbent assay.)

A short description of series [2]: Solubility pH 7. The following applies: pH 7, aqueous buffer.
The target of series [3] is T2, immunoproteasome subunit LMP7 (Homo sapiens, UniProt P28062).
T2 construct: Lysate from the human acute lymphoblastic leukemia cell line, MOLT-4; endogenous in cells; host or cells: MOLT-4
Description: Proteasome active-site ELISA (ProCISE), LMP7, MOLT-4 lysate. The format is biochemical. The procedure:
as §1

The mark [4] stands for this setting: MOLT4 lysate, 1 h continuous treatment, 25° C.
Where [5] appears, read: read-out: ProCISE beta5 MOLT4 lysate Hu 1 h CONT: IC50.
Setting [6] is: read-out: ProCISE LMP7 MOLT4 lysate Hu 1 h CONT: IC50, 1 h continuous treatment, 25° C.

Molecules are shown by their SMILES. Values after ≈ are worked out from the molar mass of the structure shown. Where two headings read alike, the source gives them in different places.

One may read the IC50 as the midpoint of a concentration-inhibition curve. What is called solubility is the dissolved amount per volume that the medium holds. Low values mean little dissolved substance, high ones much dissolved substance.

Turning to `COc1ccc(C[C@H](NC(=O)[C@H](CO)NC(=O)CN2CCOCC2)C(=O)N[C@@H](CC2=CCCCC2)C(=O)[C@@]2(C)CO2)cc1` [Compound C-1104, (S)-N-((S)-3-(cyclohex-1-en-1-yl)-1-((R)-2-methyloxiran-2-yl)-1-oxopropan-2-yl)-2-((S)-3-hydroxy-2-(2-morpholinoacetamido)propanamido)-3-(4-methoxyphenyl)propanamide], the IC50 in series [1] turned out to be 2210 nM; in series [3] (setting [4]), 72.4 nM. This compound registered a solubility in series [2] of 3270 µg/mL (≈ 5.44 mM).
Regarding `C[C@@H](NC(=O)[C@H]1CC[C@H](O)CC1)C(=O)N[C@@H](Cc1ccc2[nH]cnc2c1)C(=O)N[C@@H](CC1CCCC1)C(=O)[C@@]1(C)CO1` [Compound C-1105, (1r,4R)-N-((R)-1-(((S)-3-(1H-benzo[d]imidazol-5-yl)-1-(((S)-3-cyclopentyl-1-((R)-2-methyloxiran-2-yl)-1-oxopropan-2-yl)amino)-1-oxopropan-2-yl)amino)-1-oxopropan-2-yl)-4-hydroxycyclohexanecarboxamide], the values for the IC50 in series [1] and in series [3] (setting [4]) were 3230 nM and 49.5 nM, respectively. Moreover, in series [2], the solubility was 5690 µg/mL (≈ 9.79 mM).
The corresponding values for `CC[C@H](NC(=O)CN1CCOCC1)C(=O)N[C@@H](Cc1ccc(OC)cc1)C(=O)N[C@@H](CC1CCCC1)C(=O)[C@@]1(C)CO1` [Compound C-1106, (S)-N-((S)-1-(((S)-3-cyclopentyl-1-((R)-2-methyloxiran-2-yl)-1-oxopropan-2-yl)amino)-3-(4-methoxyphenyl)-1-oxopropan-2-yl)-2-(2-morpholinoacetamido)butanamide] are 284 nM, 49.8 nM and 960 µg/mL (≈ 1.64 mM).
For `COc1ccc(C[C@H](NC(=O)[C@H](CO)NC(=O)CN2CCOCC2)C(=O)N[C@@H](CC2=CCCCC2)C(=O)[C@@]2(C)CO2)cc1O` [Compound C-1109, (S)-N-((S)-3-(Cyclohex-1-en-1-yl)-1-((R)-2-methyloxiran-2-yl)-1-oxopropan-2-yl)-2-((S)-3-hydroxy-2-(2-morpholinoacetamido)propanamido)-3-(3-hydroxy-4-methoxyphenyl)propanamide], in that order: 4090 nM, 181 nM and 3820 µg/mL (≈ 6.2 mM).
For `C[C@]1(C(=O)[C@H](CC2=CCCCC2)NC(=O)[C@H](Cc2ccc(S(C)(=O)=O)cc2)NC(=O)[C@H](CO)NC(=O)CN2CCOCC2)CO1` [Compound C-1110, (S)-N-((S)-3-(Cyclohex-1-en-1-yl)-1-((R)-2-methyloxiran-2-yl)-1-oxopropan-2-yl)-2-((S)-3-hydroxy-2-(2-morpholinoacetamido)propanamido)-3-(4-(methylsulfonyl)phenyl)propanamide], in that order: 4340 nM, 217 nM and 8380 µg/mL (≈ 12.9 mM).
`COc1ccc([C@@H](O)[C@H](NC(=O)[C@H](CO)NC(=O)CN2CCOCC2)C(=O)N[C@@H](CC2=CCCCC2)C(=O)[C@@]2(C)CO2)cc1` [Compound C-1116, (2S,3R)-N-((S)-3-(Cyclohex-1-en-1-yl)-1-((R)-2-methyloxiran-2-yl)-1-oxopropan-2-yl)-3-hydroxy-2-((S)-3-hydroxy-2-(2-morpholinoacetamido)propanamido)-3-(4-methoxyphenyl)propanamide]: the IC50 amounted to 2940 nM in series [1] and 50.6 nM in series [3] (setting [4]). This compound displayed a solubility in series [2] of 8230 µg/mL (≈ 13.3 mM).
For `Cc1ccc(C[C@H](NC(=O)[C@H](C)NC(=O)CN2CCOCC2)C(=O)N[C@@H](CC2CCCC2)C(=O)[C@@]2(C)CO2)cc1O` [Compound C-1117, (S)-N-((S)-3-Cyclopentyl-1-((R)-2-methyloxiran-2-yl)-1-oxopropan-2-yl)-3-(3-hydroxy-4-methylphenyl)-2-((S)-2-(2-morpholinoacetamido)propanamido)propanamide], in that order: 1100 nM, 101 nM and 1560 µg/mL (≈ 2.73 mM).
The corresponding values for `COc1ccc(C[C@H](NC(=O)[C@H](C)NC(=O)CN2CCC(O)CC2)C(=O)N[C@@H](CC2=CCCC2)C(=O)[C@@]2(C)CO2)cc1` [Compound C-1118, (S)-N-((S)-3-(Cyclopent-1-en-1-yl)-1-((R)-2-methyloxiran-2-yl)-1-oxopropan-2-yl)-2-((S)-2-(2-(4-hydroxypiperidin-1-yl)acetamido)propanamido)-3-(4-methoxyphenyl)propanamide] are 407 nM, 43.8 nM and 6260 µg/mL (≈ 10.7 mM).
As to `C[C@H](NC(=O)CN1CCOCC1)C(=O)N[C@@H](Cc1cc[n+]([O-])cc1)C(=O)N[C@@H](CC1CCCC1)C(=O)[C@@]1(C)CO1` [Compound C-1119, 4-((S)-3-(((S)-3-cyclopentyl-1-((R)-2-methyloxiran-2-yl)-1-oxopropan-2-yl)amino)-2-((S)-2-(2-morpholinoacetamido)propanamido)-3-oxopropyl)pyridine 1-oxide], the IC50 was determined as 1390 nM in series [1] and 833 nM in series [3] (setting [4]). This compound had a solubility in series [2] of 10600 µg/mL (≈ 18.9 mM).
The corresponding values for `C[C@H](NC(=O)CN1CCOCC1)C(=O)N[C@@H](Cc1ccc(S(C)(=O)=O)cc1)C(=O)N[C@@H](CC1=CCCC1)C(=O)[C@@]1(C)CO1` [Compound C-1125, (S)-N-((S)-3-(cyclopent-1-en-1-yl)-1-((R)-2-methyloxiran-2-yl)-1-oxopropan-2-yl)-3-(4-(methylsulfonyl)phenyl)-2-((S)-2-(2-morpholinoacetamido)propanamido)propanamide] are 566 nM, 97.6 nM and 7720 µg/mL (≈ 12.5 mM).
The corresponding values for `COc1ccc(C[C@H](NC(=O)[C@H](C)NC(=O)CN2CCS(=O)(=O)CC2)C(=O)N[C@@H](CC2=CCCCC2)C(=O)[C@@]2(C)CO2)cc1` [Compound C-1127, (S)-N-((S)-3-(cyclohex-1-en-1-yl)-1-((R)-2-methyloxiran-2-yl)-1-oxopropan-2-yl)-2-((S)-2-(2-(1,1-dioxidothiomorpholino)acetamido)propanamido)-3-(4-methoxyphenyl) propanamide] are 4170 nM, 315 nM and 1520 µg/mL (≈ 2.4 mM).
Regarding `Cc1ccc(C[C@H](NC(=O)[C@H](C)NC(=O)CN2CCOCC2)C(=O)N[C@@H](CC2=CCCC2)C(=O)[C@@]2(C)CO2)cc1O` [Compound C-1129, (S)-N-((S)-3-(cyclopent-1-en-1-yl)-1-((R)-2-methyloxiran-2-yl)-1-oxopropan-2-yl)-3-(3-hydroxy-4-methylphenyl)-2-((S)-2-(2-morpholinoacetamido)propanamido) propanamide], the IC50 in series [1] came out at 793 nM; in series [3] (setting [4]), 76.4 nM. Further, in series [2], the solubility stood at 1760 µg/mL (≈ 3.08 mM).
The corresponding values for `COc1ccc(C[C@H](NC(=O)[C@H](CC#N)NC(=O)CN2CCOCC2)C(=O)N[C@@H](CC2=CCCC2)C(=O)[C@@]2(C)CO2)cc1` [Compound C-1135, (S)-3-Cyano-N-((S)-1-(((S)-3-(cyclopent-1-en-1-yl)-1-((R)-2-methyloxiran-2-yl)-1-oxopropan-2-yl)amino)-3-(4-methoxyphenyl)-1-oxopropan-2-yl)-2-(2-morpholinoacetamido)propanamide] are 289 nM, 31 nM and 1860 µg/mL (≈ 3.13 mM).
In the case of `CCc1ccc(C[C@H](NC(=O)[C@H](C)NC(=O)CN2CCOCC2)C(=O)N[C@@H](CC2=CCCC2)C(=O)[C@@]2(C)CO2)cc1O` [Compound C-1136, (S)-N-((S)-3-(cyclopent-1-en-1-yl)-1-((R)-2-methyloxiran-2-yl)-1-oxopropan-2-yl)-3-(4-ethyl-3-hydroxyphenyl)-2-((S)-2-(2-morpholinoacetamido)propanamido)propanamide], the IC50 in series [1] amounted to 402 nM; in series [3] (setting [4]), 46.2 nM. Further, the concentration in solution in series [2] (solubility) was 54.4 µg/mL (≈ 0.093 mM).
For `COc1ccc(C[C@H](NC(=O)[C@@H](NC(=O)CN2CCOCC2)C2COC2)C(=O)N[C@@H](CC2=CCCCC2)C(=O)[C@@]2(C)CO2)cc1` [Compound C-1138, (S)-N-((S)-3-(Cyclohex-1-en-1-yl)-1-((R)-2-methyloxiran-2-yl)-1-oxopropan-2-yl)-3-(4-methoxyphenyl)-2-((S)-2-(2-morpholinoacetamido)-2-(oxetan-3-yl)acetamido)propanamide], in that order: 409 nM, 45.3 nM and 2350 µg/mL (≈ 3.75 mM).
The corresponding values for `COc1ccc([C@@H](O)[C@H](NC(=O)[C@H](CO)NC(=O)CN2CCOCC2)C(=O)N[C@@H](CC2=CCCC2)C(=O)[C@@]2(C)CO2)cc1` [Compound C-1144, (2S,3R)-N-((S)-3-(cyclopent-1-en-1-yl)-1-((R)-2-methyloxiran-2-yl)-1-oxopropan-2-yl)-3-hydroxy-2-((S)-3-hydroxy-2-(2-morpholinoacetamido)propanamido)-3-(4-methoxyphenyl)propanamide] are 266 nM, 20.1 nM and over 10000 µg/mL.
As to `COc1ccc(C[C@H](NC(=O)[C@@H](CO)NC(=O)CN2CCOCC2)C(=O)N[C@@H](Cc2ccccc2)C(=O)[C@@]2(C)CO2)cc1` [Compound C-1158], the IC50 turned out to be 874 nM in series [1] (setting [5]) and 161 nM in series [3] (setting [6]). In series [2], the solubility was 3030 µg/mL (≈ 5.08 mM).
For `COc1ccc(C[C@H](NC(=O)[C@H](C)NC(=O)[C@H]2CCCN2C)C(=O)N[C@@H](Cc2ccccc2)C(=O)[C@@]2(C)CO2)cc1` [Compound C-1164], in that order: 581 nM, 82.1 nM and 2670 µg/mL (≈ 4.72 mM).
